From US7074789B2, “Kinase inhibitors” (Amgen Inc., priority 1999, dated 2006)

Columns and labels:
Assay type in all cases: biochemical
Kdr = molecular target: T1, Kdr (Homo sapiens, UniProt P35968); assay: Kinase inhibition assay (33P transfer), Kdr; conditions: Table 3; read-out: KDR-1
T1 construct: Kinases are expressed as either kinase domains or full length constructs; made in house
Outline: (§1)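 Activity was read as 33P incorporation, counted by liquid scintillation after a 0.5% phosphoric acid wash, into poly(Glu,Tyr) 4:1 or poly(Arg,Ser) 3:1 substrates coated on plates. Enzymes were tagged (GST or polyHis) kinase domains or full-length proteins from bacterial or insect-cell expression, sometimes with regulatory polypeptides.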

AKT = molecular target: T2, AKT (Homo sapiens, UniProt Q9Y243); assay: Kinase inhibition assay (33P transfer), AKT; conditions: Table 2, kinase inhibition class; read-out: AKT3-1
T2 construct: Kinases are expressed as either kinase domains or full length constructs; made in house
Outline: as §1

Itk = molecular target: T3, Itk (Homo sapiens, UniProt Q08881); assay: Kinase inhibition assay (33P transfer), Itk; conditions: Table 3; read-out: Itk-1
T3 construct: Kinases are expressed as either kinase domains or full length constructs; made in house
T3 sequence (Q08881 1-620): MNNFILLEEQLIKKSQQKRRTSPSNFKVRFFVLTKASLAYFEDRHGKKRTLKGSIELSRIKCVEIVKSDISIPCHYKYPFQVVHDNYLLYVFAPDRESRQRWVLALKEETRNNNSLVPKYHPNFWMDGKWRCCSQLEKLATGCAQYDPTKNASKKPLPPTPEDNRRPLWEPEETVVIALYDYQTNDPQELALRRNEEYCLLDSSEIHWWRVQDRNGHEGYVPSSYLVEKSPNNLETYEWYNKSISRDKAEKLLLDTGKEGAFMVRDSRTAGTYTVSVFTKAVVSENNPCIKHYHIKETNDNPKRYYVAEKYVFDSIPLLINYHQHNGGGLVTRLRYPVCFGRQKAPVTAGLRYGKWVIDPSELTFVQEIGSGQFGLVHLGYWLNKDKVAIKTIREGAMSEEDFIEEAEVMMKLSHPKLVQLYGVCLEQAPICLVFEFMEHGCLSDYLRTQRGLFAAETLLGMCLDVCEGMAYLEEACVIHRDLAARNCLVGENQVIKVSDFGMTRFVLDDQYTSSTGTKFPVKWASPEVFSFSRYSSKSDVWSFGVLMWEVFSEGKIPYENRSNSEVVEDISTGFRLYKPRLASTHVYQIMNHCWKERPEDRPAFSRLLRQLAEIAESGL
Outline: (§2)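 Each enzyme, purified to near homogeneity by affinity chromatography, was incubated with ATP carrying 33P and a substrate polymer fixed to the plate. Unbound label was removed with dilute phosphoric acid (0.5%) before adding scintillant and counting. Potency is given as the compound level cutting label uptake by 50%.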

EGFR = molecular target: T4, EGFR (Homo sapiens, UniProt P00533); assay: Kinase inhibition assay (33P transfer), EGFR; conditions: Table 2, kinase inhibition class; read-out: EGFR-1
T4 construct: Kinases are expressed as either kinase domains or full length constructs; made in house
Outline: as §2

Zap-70 = molecular target: T5, Zap-70 (Homo sapiens, UniProt P43403); assay: Kinase inhibition assay (33P transfer), Zap-70; conditions: Table 3; read-out: Zap-1
T5 construct: Kinases are expressed as either kinase domains or full length constructs; made in house
T5 sequence (P43403 1-619): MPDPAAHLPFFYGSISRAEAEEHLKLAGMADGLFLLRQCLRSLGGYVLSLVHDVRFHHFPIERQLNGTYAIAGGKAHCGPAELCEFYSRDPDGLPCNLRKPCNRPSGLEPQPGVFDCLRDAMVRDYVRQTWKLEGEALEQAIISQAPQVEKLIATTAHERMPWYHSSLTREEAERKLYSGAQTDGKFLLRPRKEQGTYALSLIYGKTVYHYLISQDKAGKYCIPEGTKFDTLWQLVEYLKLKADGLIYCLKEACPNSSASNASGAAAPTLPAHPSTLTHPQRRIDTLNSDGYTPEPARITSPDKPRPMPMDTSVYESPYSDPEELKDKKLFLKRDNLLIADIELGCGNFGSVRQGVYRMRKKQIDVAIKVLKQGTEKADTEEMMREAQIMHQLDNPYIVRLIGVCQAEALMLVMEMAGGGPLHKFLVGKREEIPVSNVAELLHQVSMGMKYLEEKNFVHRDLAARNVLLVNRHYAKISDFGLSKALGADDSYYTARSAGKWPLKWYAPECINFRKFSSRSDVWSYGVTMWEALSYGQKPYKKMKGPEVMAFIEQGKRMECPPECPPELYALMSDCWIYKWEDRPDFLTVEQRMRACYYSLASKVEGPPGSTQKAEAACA
Outline: as §1

Flt-1 = molecular target: T6, Flt-1 (Homo sapiens, UniProt P17948); assay: Kinase inhibition assay (33P transfer), Flt-1
T6 construct: Kinases are expressed as either kinase domains or full length constructs; made in house
Description: (§3) The inhibitor compounds described herein are screened in the following manner. Kinases suitable for use in the following protocol to determine kinase activity of the compounds described herein include, -but are not limited to: Lck, Lyn, Src, Fyn, Syk, Zap-70, Itk, Tec, Btk, EGFR, ErbB2, Kdr, Flt-1, Flt-3, Tek, c-Met, InsR, and AKT.
(§4) Kinases are expressed as either kinase domains or full length constructs fused to glutathione S-transferase (GST) or polyHistidine tagged fusion proteins in either E. colior Baculovirus-High Five expression systems. They are purified to near homogeneity by affinity chromatography essentially as previously described (Lehr et al., 1996; Gish et al., 1995). In some instances, kinases are co-expressed or mixed with purified or partially purified regulatory polypeptides prior to measurement of activity.
(§5) Kinase activity and inhibition are measured essentially by established protocols (Braunwalder et al., 1996). Briefly, The transfer of ^33PO4 from ATP to the synthetic substrates poly(Glu, Tyr) 4:1 or poly(Arg, Ser) 3:1 attached to the bioactive surface of microtiter plates serves as the basis to evaluate enzyme activity. After an incubation period, the amount of phosphate transferred is measured by first washing the plate with 0.5% phosphoric acid, adding liquid scintillant, and then counting in a liquid scintillation detector. The IC50 is determined by the concentration of compound that causes a 50% reduction in the amount of […] incorporated onto the substrate bound to the plate.

PDGFRB = molecular target: T7, PDGFRB (Homo sapiens, UniProt P09619); assay: Kinase inhibition assay (33P transfer), PDGFRB; conditions: read-out: PDGFRB-1
T7 construct: Kinases are expressed as either kinase domains or full length constructs; made in house

c-Met = molecular target: T8, c-Met (Homo sapiens, UniProt P08581); assay: Kinase inhibition assay (33P transfer), c-Met; conditions: Table 2, kinase inhibition class; read-out: Met-1
T8 construct: Kinases are expressed as either kinase domains or full length constructs; made in house
Outline: as §2

Tek = molecular target: T9, Tek (Homo sapiens, UniProt Q02763); assay: Kinase inhibition assay (33P transfer), Tek; conditions: read-out: Tek-1
T9 construct: Kinases are expressed as either kinase domains or full length constructs; made in house
Outline: as §2

Lyn = molecular target: T10, Lyn (Homo sapiens, UniProt P07948); assay: Kinase inhibition assay (33P transfer), Lyn; conditions: Table 6, Lyn-1 kinase inhibition class
T10 construct: Kinases are expressed as either kinase domains or full length constructs; made in house
Description: as §3, §4, §5

Fyn = molecular target: T11, Fyn (Homo sapiens, UniProt P06241); assay: Kinase inhibition assay (33P transfer), Fyn; conditions: read-out: Fyn-1
T11 construct: Kinases are expressed as either kinase domains or full length constructs; made in house
Description: as §3, §4, §5

Lck = molecular target: T12, Lck (Homo sapiens, UniProt P06239); assay: Kinase inhibition assay (33P transfer), Lck; conditions: Table 3; read-out: Lck-1
T12 construct: Kinases are expressed as either kinase domains or full length constructs; made in house
Outline: as §1

ErbB4 = molecular target: T13, ErbB4 (Homo sapiens, UniProt Q15303); assay: Kinase inhibition assay (33P transfer), ErbB4; conditions: read-out: ErbB4-1
T13 construct: Kinases are expressed as either kinase domains or full length constructs; made in house

Src = molecular target: T14, Src (Homo sapiens, UniProt P12931); assay: Kinase inhibition assay (33P transfer), Src; conditions: Table 6, Src-1 kinase inhibition class
T14 construct: Kinases are expressed as either kinase domains or full length constructs; made in house
Description: as §3, §4, §5

FGFR1 = molecular target: T15, FGFR1 (Homo sapiens, UniProt P11362); assay: Kinase inhibition assay (33P transfer), FGFR1; conditions: read-out: FGFR1-1
T15 construct: Kinases are expressed as either kinase domains or full length constructs; made in house

Hck-1 = molecular target: T16, Hck-1 (Homo sapiens, UniProt P08631); assay: Kinase inhibition assay (33P transfer), Hck; conditions: Table 6, Hck-1 kinase inhibition class
T16 construct: Kinases are expressed as either kinase domains or full length constructs; made in house
T16 sequence (P08631 whole entry, the tested form may be a part): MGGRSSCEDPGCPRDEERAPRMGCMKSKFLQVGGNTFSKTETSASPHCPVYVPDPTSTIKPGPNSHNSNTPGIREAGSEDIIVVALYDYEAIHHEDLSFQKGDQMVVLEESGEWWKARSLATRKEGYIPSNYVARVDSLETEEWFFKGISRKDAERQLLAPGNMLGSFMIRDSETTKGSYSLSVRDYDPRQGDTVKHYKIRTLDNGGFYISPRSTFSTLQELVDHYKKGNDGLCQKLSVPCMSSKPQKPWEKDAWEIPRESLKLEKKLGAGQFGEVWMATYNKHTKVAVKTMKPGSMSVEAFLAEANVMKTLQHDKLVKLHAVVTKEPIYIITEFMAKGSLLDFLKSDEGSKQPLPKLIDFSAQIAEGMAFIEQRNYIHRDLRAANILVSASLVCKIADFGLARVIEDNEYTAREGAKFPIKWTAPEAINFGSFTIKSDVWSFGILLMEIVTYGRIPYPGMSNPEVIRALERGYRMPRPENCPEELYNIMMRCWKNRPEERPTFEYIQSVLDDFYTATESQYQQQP

T12 sequence (P06239 whole entry, species assumed, the tested form may be a part): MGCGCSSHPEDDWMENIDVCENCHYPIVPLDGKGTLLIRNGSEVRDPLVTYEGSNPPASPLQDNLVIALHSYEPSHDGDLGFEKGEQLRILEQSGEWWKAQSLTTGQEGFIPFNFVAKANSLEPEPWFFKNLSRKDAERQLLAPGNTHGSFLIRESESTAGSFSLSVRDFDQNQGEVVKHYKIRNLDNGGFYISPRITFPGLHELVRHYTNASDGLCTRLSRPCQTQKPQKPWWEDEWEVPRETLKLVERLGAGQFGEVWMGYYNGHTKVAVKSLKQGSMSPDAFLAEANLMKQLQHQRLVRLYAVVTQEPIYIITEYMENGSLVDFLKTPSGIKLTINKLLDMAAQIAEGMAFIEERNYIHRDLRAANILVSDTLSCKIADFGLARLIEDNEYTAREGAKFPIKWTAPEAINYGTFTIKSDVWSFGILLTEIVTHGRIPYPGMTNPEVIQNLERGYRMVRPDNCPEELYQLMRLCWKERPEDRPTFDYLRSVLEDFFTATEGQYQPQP
T15 sequence (P11362 22-822, species assumed): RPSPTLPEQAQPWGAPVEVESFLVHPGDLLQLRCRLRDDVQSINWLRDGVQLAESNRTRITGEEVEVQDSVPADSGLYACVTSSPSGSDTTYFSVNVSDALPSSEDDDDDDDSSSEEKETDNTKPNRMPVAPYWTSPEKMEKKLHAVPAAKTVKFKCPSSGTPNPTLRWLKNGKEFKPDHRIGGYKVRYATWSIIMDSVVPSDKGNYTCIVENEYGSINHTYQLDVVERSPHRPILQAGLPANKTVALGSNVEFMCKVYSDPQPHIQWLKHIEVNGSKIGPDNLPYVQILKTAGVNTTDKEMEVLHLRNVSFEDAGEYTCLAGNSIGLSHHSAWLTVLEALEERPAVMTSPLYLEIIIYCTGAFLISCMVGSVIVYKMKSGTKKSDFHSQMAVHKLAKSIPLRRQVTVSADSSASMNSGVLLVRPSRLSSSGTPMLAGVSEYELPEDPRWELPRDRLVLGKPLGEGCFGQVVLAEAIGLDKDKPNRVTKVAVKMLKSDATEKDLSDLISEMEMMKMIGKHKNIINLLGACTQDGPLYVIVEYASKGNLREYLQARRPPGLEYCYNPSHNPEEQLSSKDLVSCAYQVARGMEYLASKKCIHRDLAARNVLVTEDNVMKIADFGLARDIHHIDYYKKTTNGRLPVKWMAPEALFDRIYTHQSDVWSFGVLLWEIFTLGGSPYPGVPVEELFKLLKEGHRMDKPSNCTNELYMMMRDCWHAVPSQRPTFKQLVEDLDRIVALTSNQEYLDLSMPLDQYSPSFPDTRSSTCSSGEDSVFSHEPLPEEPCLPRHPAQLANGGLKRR
T9 sequence (Q02763 23-1124, species assumed): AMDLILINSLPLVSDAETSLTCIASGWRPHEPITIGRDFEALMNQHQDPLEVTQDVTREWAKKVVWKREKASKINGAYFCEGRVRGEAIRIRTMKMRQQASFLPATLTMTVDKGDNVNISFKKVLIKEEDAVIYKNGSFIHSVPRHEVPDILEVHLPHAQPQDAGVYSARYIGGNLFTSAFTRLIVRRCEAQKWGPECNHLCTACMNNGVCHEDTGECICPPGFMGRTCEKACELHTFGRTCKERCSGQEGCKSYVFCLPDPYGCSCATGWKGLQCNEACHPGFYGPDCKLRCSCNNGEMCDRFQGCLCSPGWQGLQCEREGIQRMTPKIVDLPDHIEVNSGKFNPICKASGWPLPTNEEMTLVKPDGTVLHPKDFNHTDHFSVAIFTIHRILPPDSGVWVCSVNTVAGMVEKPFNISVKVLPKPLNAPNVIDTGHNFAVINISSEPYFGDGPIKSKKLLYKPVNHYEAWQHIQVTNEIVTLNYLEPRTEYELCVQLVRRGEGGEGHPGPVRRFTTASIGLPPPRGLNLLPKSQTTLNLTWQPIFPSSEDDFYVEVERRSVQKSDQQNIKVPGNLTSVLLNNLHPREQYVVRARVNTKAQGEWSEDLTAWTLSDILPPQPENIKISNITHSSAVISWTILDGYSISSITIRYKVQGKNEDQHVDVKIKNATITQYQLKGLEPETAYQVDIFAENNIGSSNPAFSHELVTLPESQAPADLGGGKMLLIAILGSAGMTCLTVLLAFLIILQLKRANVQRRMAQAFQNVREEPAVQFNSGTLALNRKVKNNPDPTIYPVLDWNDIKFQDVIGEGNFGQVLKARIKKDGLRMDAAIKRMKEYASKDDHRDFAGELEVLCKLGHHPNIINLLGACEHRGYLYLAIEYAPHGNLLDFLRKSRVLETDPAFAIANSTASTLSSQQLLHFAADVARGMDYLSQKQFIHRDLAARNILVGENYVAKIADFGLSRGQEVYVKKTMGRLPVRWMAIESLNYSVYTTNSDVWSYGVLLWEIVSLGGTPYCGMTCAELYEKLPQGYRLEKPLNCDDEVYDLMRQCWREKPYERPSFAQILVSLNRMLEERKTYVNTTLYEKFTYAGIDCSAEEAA
T2 sequence (Q9Y243 whole entry, the tested form may be a part): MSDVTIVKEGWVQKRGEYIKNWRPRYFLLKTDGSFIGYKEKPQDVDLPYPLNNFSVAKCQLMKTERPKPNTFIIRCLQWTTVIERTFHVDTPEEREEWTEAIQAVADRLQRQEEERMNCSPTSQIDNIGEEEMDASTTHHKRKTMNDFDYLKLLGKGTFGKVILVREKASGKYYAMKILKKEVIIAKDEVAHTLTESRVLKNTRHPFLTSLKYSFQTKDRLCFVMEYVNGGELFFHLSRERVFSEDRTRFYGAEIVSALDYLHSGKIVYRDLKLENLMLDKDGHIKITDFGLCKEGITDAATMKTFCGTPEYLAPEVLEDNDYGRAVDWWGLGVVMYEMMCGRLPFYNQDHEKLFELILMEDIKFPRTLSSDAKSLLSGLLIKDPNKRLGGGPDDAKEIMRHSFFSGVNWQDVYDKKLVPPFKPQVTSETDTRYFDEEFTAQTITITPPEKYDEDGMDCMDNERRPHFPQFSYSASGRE
T8 sequence (P08581 25-1390): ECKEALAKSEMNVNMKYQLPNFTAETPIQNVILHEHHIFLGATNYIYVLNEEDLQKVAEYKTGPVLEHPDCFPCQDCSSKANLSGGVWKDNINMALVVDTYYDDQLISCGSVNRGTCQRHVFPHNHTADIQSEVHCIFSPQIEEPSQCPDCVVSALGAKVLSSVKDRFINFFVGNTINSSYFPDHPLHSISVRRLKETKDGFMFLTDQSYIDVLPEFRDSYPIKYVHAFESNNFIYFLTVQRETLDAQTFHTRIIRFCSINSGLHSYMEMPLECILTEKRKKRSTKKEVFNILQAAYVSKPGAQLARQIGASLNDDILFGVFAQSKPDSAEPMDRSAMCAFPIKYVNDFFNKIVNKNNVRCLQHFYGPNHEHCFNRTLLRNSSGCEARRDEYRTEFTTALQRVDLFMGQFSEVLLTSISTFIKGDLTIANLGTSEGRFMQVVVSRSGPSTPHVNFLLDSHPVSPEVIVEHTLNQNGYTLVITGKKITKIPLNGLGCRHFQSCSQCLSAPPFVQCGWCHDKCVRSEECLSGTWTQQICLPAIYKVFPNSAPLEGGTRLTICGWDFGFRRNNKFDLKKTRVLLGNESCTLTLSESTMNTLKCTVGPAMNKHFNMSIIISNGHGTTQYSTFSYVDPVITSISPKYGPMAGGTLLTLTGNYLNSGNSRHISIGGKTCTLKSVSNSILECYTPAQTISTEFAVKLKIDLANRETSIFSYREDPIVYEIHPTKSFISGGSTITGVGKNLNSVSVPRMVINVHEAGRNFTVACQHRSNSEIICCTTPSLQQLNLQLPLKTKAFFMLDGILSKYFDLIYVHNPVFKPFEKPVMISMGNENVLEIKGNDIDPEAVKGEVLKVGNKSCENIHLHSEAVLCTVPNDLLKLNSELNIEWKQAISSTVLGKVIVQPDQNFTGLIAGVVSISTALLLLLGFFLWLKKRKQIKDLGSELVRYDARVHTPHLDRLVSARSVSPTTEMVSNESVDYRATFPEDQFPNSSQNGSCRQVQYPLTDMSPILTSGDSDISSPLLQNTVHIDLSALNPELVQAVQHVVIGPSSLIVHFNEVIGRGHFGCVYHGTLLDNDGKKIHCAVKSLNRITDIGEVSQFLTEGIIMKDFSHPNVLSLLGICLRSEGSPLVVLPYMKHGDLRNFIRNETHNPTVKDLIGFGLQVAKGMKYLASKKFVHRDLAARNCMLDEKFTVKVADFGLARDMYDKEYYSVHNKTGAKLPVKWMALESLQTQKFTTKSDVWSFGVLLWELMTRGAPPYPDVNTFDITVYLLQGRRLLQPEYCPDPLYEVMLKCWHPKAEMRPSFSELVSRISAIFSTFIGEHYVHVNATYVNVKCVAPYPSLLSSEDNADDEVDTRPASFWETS

Structure (SMILES)	IC50 (Kdr) [µM]	IC50 (AKT) [µM]	IC50 (Itk) [µM]	IC50 (EGFR) [µM]	IC50 (Zap-70) [µM]	IC50 (Flt-1) [µM]	IC50 (PDGFRB) [µM]	IC50 (c-Met) [µM]	IC50 (Tek) [µM]	IC50 (Lyn) [µM]	IC50 (Fyn) [µM]	IC50 (Lck) [µM]	IC50 (ErbB4) [µM]	IC50 (Src) [µM]	IC50 (FGFR1) [µM]	IC50 (Hck-1) [µM]
COc1cc(Nc2ncnc(N[C@H](CO)c3ccccc3)n2)cc(OC)c1OC [Compound 425]	8.81 to 11.3	> 11.3	> 11.3	1.01 to 6.04	> 11.3	> 11.3	1.01 to 6.04	> 11.3	> 11.3	< 1.01	8.81 to 11.3	> 11.3	> 11.3	1.01 to 6.04	6.04 to 8.81	> 11.3
COc1cc(Nc2ncnc(-n3c(Nc4ccc5cn[nH]c5c4)nc4ccccc43)n2)cc(OC)c1OC [Compound 406]	0.785 to 4.71	> 8.83	> 8.83	> 8.83	> 8.83	4.71 to 6.87	0.785 to 4.71	> 8.83	> 8.83	0.785 to 4.71	0.785 to 4.71	0.785 to 4.71	> 8.83	> 8.83	< 0.785	> 8.83
COc1cc(Nc2ncnc(-n3ccc4cc(O)ccc43)n2)cc(OC)c1OC [Compound 202]	< 1.02	8.9 to 11.4	< 1.02	> 11.4	> 11.4	< 1.02	< 1.02	1.02 to 6.1	6.1 to 8.9	< 1.02	< 1.02	< 1.02	1.02 to 6.1	< 1.02	< 1.02	> 11.4
Nc1nc2ccccc2n1-c1ncnc(Nc2cccc(-c3cnco3)c2)n1 [Compound 439]	< 1.08	1.08 to 6.48	1.08 to 6.48	1.08 to 6.48	6.48 to 9.45	< 1.08	< 1.08	1.08 to 6.48	1.08 to 6.48	1.08 to 6.48	1.08 to 6.48	1.08 to 6.48	1.08 to 6.48	1.08 to 6.48	< 1.08	1.08 to 6.48
COc1cc(Nc2ncnc(-n3c(NC(C)C)nc4ccccc43)n2)cc(OC)c1OC [Compound 403]	< 0.919	> 10.3	> 10.3	> 10.3	> 10.3	0.919 to 5.51	< 0.919	> 10.3	> 10.3	< 0.919	0.919 to 5.51	< 0.919	> 10.3	0.919 to 5.51	< 0.919	> 10.3
CCOC(=O)Cc1cn(-c2ncnc(Nc3cc(OC)c(OC)c(OC)c3)n2)c2ccccc12 [Compound 411]	< 0.863	> 9.71	> 9.71	> 9.71	> 9.71	0.863 to 5.18	< 0.863	< 0.863	> 9.71	0.863 to 5.18	> 9.71	7.55 to 9.71	> 9.71	0.863 to 5.18	< 0.863	> 9.71
CNc1nc2ccccc2n1-c1ncnc(Nc2cc(OC)c(OC)c(OC)c2)n1 [Compound 417]	< 0.982	> 11	> 11	> 11	> 11	0.982 to 5.89	< 0.982	> 11	> 11	0.982 to 5.89	5.89 to 8.59	< 0.982	> 11	0.982 to 5.89	< 0.982	> 11
COc1cccc(Nc2nc3ccccc3n2-c2ncnc(Nc3cc(OC)c(OC)c(OC)c3)n2)c1 [Compound 415]	< 0.801	> 9.01	> 9.01	> 9.01	> 9.01	0.801 to 4.8	< 0.801	> 9.01	> 9.01	> 9.01	> 9.01	4.8 to 7.01	> 9.01	> 9.01	< 0.801	> 9.01
CC(=O)NS(=O)(=O)c1ccc(Nc2ncnc(-n3c(N)nc4ccccc43)n2)cc1 [Compound 440]	0.942 to 5.65	> 10.6	8.25 to 10.6	0.942 to 5.65	0.942 to 5.65	0.942 to 5.65	0.942 to 5.65	0.942 to 5.65	5.65 to 8.25	5.65 to 8.25	0.942 to 5.65	0.942 to 5.65	0.942 to 5.65	> 10.6	0.942 to 5.65	5.65 to 8.25
OCc1cccc(Nc2ncnc(Nc3cc(-c4ccco4)n[nH]3)n2)c1 [Compound 429]	< 1.14	1.14 to 6.87	1.14 to 6.87	1.14 to 6.87	> 12.9	< 1.14	< 1.14	< 1.14	10 to 12.9	< 1.14	1.14 to 6.87	1.14 to 6.87	1.14 to 6.87	< 1.14	< 1.14	> 12.9
